Assay results: US20210000953A1, “USE OF IMMUNE CHECKPOINT INHIBITORS IN CENTRAL NERVOUS SYSTEMS NEOPLASMS” (Bristol-Myers Squibb Company, priority 2014, published 2021)
Entries after “also recorded” stand apart in the source; their conditions may differ.

How the values were obtained:
recurrent GBM = experiment: Study CA209143 safety lead-in cohorts (Cohort 1, 1b): investigator-assessed tumor response per RANO (brain MRI) and overall survival; type: in vivo, human
Procedure: A randomized, open-label, multicenter, phase 3 study of nivolumab monotherapy versus bevacizumab and a safety study of nivolumab and nivolumab in combination with ipilimumab is conducted in adult (>18 years) subjects with a first recurrence of GBM after treatment with radiotherapy and temozolomide. Since the use of nivolumab and ipilimumab has not previously been studied in subjects with GBM, a safety lead-in (Cohort 1) consisting of approximately 10 subjects in each of two treatment arms are enrolled and randomized to treatment with either Arm N (nivolumab monotherapy) or Arm N+I (nivolumab combined with ipilimumab). Tolerability and safety of a treatment arm is determined after all subjects in the arm completed four doses or discontinued dosing prior to completing four doses. A safety evaluation of Cohort 1 is conducted for each arm based on criteria described herein.
In order to better characterize preliminary safety and tolerability for the combination therapy, an additional, non-randomized safety cohort (Cohort 1b) to evaluate an alternate dosing regimen is initiated for the combination therapy (nivolumab 3 mg/kg+ipilimumab 1 mg/kg every 3 weeks for 4 cycles followed by nivolumab 3 mg/kg thereafter). Evaluation of the efficacy of nivolumab+ipilimumab combination therapy will be evaluated separately. Information from subjects treated with combination therapy in Cohort 1 and Cohort 1b will provide a basis for dose selection for future studies in subjects with GBM.
All subjects received efficacy assessments with brain MRI with contrast on Day 1 Week 7, Day 1 Week 13, and then one time every 8 weeks (±1 week). MRIs occurred at ±7 days per scheduled visits. Investigators will obtain more frequent follow-up MRI scans as medically indicated.
The primary efficacy measure of the study is overall survival (OS). OS is defined as the time between the date of randomization and the date of death due to any cause. OS is followed continuously while subjects are on study drug and every 3 months via in-person or phone contact during the survival follow-up phase of the study.
Investigator-assessed tumor response is based upon published RANO criteria. Tumor assessments are performed as shown above in the imaging assessment for the study. Radiologic response was assessed by comparing the pretreatment baseline and on-treatment MRI scans. Radiologic progression was determined by using the smallest tumor measurement at either the pretreatment baseline or after initiation of study medication.
A complete response required: complete disappearance of all enhancing measurable and nonmeasurable disease sustained for at least 4 weeks; no new lesions; stable or improved nonenhancing (T2/FLAIR) lesions; patients must be off corticosteroids (or on physiologic replacement doses only); and stable or improved clinically. Patients with nonmeasurable disease only cannot have a complete response; the best response possible is stable disease. […]

[1] = system: resected GBM tumor tissue; experiment: Histopathology of tumor tissue resected at suspected progression; type: in vivo, human
Source text: In those cases in which radiologic progression cannot be differentiated from pseudoprogression and it is the investigator's opinion that a surgical resection to obtain tumor tissue for histopathology is in the subject's best interests, a surgical resection may be performed following consultation with the BMS medical monitor. Tumor biopsy samples (blocks or slides) must be submitted for central review by a neuropathologist to minimize any inter-observer variation in the histopathologic assessment of progression versus treatment-related changes. If tumor pathology confirms progression, then the subject will be discontinued from study medication per protocol discontinuation criteria and the date of progression will be the day that it was first suspected. […] An MRI after the resection is required prior to treatment continuation. The subject will then continue all on-treatment tumor assessments as per the treatment schedule.
In those cases in which radiologic progression cannot be differentiated from pseudoprogression and the subject undergoes a biopsy or diagnostic surgical resection to obtain tumor tissue for histopathology analysis, representative tumor tissue samples will be reviewed locally and submitted for central review by a neuropathologist. If there is discordance between the central and local neuropathologic determination of progression versus treatment-associated changes (pseudoprogression), then a second central neuropathologic review will be performed and serve as the final adjudication of the histopathologic determination. Central review of histopathology will be blinded to the subject treatment arm assignment. Specific instructions will be provided to the investigative sites regarding the requirements for submission of tumor tissue for central neuropathologic review.

[2] = in vivo; cited from earlier work
[3] = exploratory analysis, Cohort 1, recurrent GBM, N = 10 per arm, same regimens
[4] = investigator-assessed per RANO, Cohort 1, recurrent GBM, N = 10 per arm, nivolumab 3 mg/kg Q2W or nivolumab 1 mg/kg + ipilimumab 3 mg/kg Q3W x4 then nivolumab 3 mg/kg Q2W
[5] = case: nivolumab 3 mg/kg, after five treatments

Substance: nivolumab
- Patients who experienced stable disease or better (recurrent GBM; Cohort 1 nivolumab monotherapy 3 mg/kg, RANO): 6/10
- Time on treatment of the one patient still receiving nivolumab at cutoff (recurrent GBM; Cohort 1 nivolumab monotherapy arm, cutoff Sep. 9, 2015): 17.5 months
- Brain MRI following three treatments (recurrent GBM; case: Cohort 1 Arm N, nivolumab 3 mg/kg monotherapy): disease progression as per RANO
- Response according to RANO criteria (recurrent GBM; case: MGMT methylated, EGFRvIII positive GBM, nivolumab 3 mg/kg): partial response
- Brain MRI four weeks after resection (recurrent GBM; case: nivolumab 3 mg/kg): did not show tumor growth
- Brain MRI on Aug. 28, 2014 (recurrent GBM; case: nivolumab 3 mg/kg delayed, dexamethasone 4 mg BID): improvement with resolution of rim enhancement
- Death, time after randomization (recurrent GBM; case: nivolumab 3 mg/kg, treated 227 days): 397 days
- Karnofsky performance status at all subsequent visits (recurrent GBM; case: nivolumab 3 mg/kg, 90 at baseline): 90
- Time to distant disease progression after resuming nivolumab following surgery (recurrent GBM; case: nivolumab 3 mg/kg, hippocampus and right hypothalamus, proven on autopsy): 4 months
- Overall survival: Median, months (95% CI) (recurrent GBM; exploratory analysis, Cohort 1, recurrent GBM, N = 10 per arm, nivolumab 3 mg/kg Q2W or nivolumab 1 mg/kg + ipilimumab 3 mg/kg Q3W x4 then nivolumab 3 mg/kg Q2W, NE: not estimated): 10.5 (4.1-NE)^ months
- Overall survival: 6-month rate (95% CI) (recurrent GBM; [3]): 70.0% (32.9-89.2)
- Overall survival: 9-month rate (95% CI) (recurrent GBM; [3]): 60.0% (25.3-82.7)
- Overall survival: 12-month rate (95% CI) (recurrent GBM; [3]): 40.0% (12.3-67.0)
- Overall survival: Range, months (recurrent GBM; [3]): 4.1-17.6 months
- Best overall response: Complete Response (recurrent GBM; [4]): 0 n (%)
- Best overall response: Partial Response (recurrent GBM; [4]): 1 (10) n (%)
- Best overall response: Progressive Disease (recurrent GBM; [4]): 3 (30) n (%)
- Best overall response: Stable Disease (recurrent GBM; [4]): 5 (50) n (%)
- Best overall response: Unable to Determine (recurrent GBM; [4]): 1 (10) n (%)
- Histopathology of the resected tumor ([1]; case: after five doses of nivolumab 3 mg/kg Q2W, suspected progression): immune infiltration consistent with treatment-related changes; also recorded: consistent with significant treatment-related changes
- Pathology review of resection, occipital area [1, 5]: viable tumor in samples from the occipital area with infiltrating T-lymphocytes
- Pathology review of resection, periventricular area [1, 5]: only necrosis and fibrinous exudate (radiation necrosis) and large aggregates of lymphocytes with no tumor
- Terminal half life [2]: up to 25 days
